# Assay results published in patent US4704399A, “1,3-dioxan-4-ylalkenoic acids” (Imperial Chemical Industries PLC, priority 1983, dated 1987).
# How the values were obtained:
# [1] = tested on: hypertensive effect of TXA2 mimetic agent U46619; experiment: U46619-induced hypertensive effect in anaesthetised rats, test (d); type: in vivo, rats (Alderley Park strain)
# Description: (d) Male rats (Alderley Park strain) are anaesthetised with sodium pentobarbital and blood pressure is monitored at the carotid artery. The TXA2 mimetic agent U46619 is administered intravenously via the jugular vein and an ED50 (dose necessary to produce 50% of the maximum hypertensive effect) is established (n=3). The ED50 for U46619 is approximately 5 μg/kg. A test compound is then administered either intravenously via the jugular vein or orally via a cannula directly into the stomach and the animal challenged with an ED50 dose of U46619, five minutes after dosing with test compound and then successively every ten minutes until the hypertensive effect of U46619 is no longer blocked.
# [2] = tested on: rabbit aortal strip, agonist TXA2 mimetic agent U46619; experiment: rabbit aortal strip model, test (a); design: species or system isolated tissue
# Description: (a) The rabbit aortal strip model devised by Piper and Vane (Nature, 1969, 223, 29-35) using as agonist the TXA2 mimetic agent known as U46619 (R. L. Jones et alia in "Chemistry, Biochemistry and Pharmacological Activity of Prostanoids", eds. S. M. Roberts and F. Scheinmann, at p.211; Pergamon Press, 1979);
# [3] = tested on: bronchoconstriction induced by TXA2 mimetic agent U46619; experiment: bronchoconstriction test, Konzett-Rossler guinea-pig model, test (c); type: in vivo; settings: some 3 hours following an oral dose of 5mg/kg, U46619 i.v. 1-1.5 μg/kg
# Description: (c) a bronchoconstriction test involving measuring the inhibition by a test compound of the bronchoconstriction induced in the Konzett-Rossler guinea-pig model (as modified by Collier and James, Brit. J. Pharmacol., 1967, 30, 283-307) by intravenous administration of the TXA2 mimetic agent, U46619 at 1-1.5 μg/kg.
Compound,"inhibition of the hypertensive effect ([1]; test (d), 80-90 minutes following an oral dose of 50 mg./kg., challenge with ED50 dose of U46619)",pA2 [2],reduction of bronchoconstriction [3],"ED50 ([1]; Rattus norvegicus, iv, intravenously via the jugular vein, anaesthetised male rats, n=3, read-out: ED50 (dose necessary to produce 50% of the maximum hypertensive effect)) [µg/kg]"
"CCC[C@H]1OC[C@H](c2ccccc2C)[C@@H](CCCCCCC(=O)O)O1 (relative stereo) [Example 12, 7-([2,4-cis,4,5-trans]-2-n-propyl-5-o-tolyl-1,3-dioxan-4-yl)heptanoic acid]",complete inhibition of the hypertensive effect,6.7,significant reduction of bronchoconstriction,
"CCCCC[C@H](O)/C=C/[C@@H]1[C@@H](C/C=C\CCCC(=O)O)[C@H]2CO[C@@H]1C2 [Example U46619, reference compound]",,,,~5
